Test results as given in patent US12552783B2, “Modulators of proteolysis and associated methods of use” (Arvinas Operations, Inc., priority 2018, dated 2026).

Target: KRas (Homo sapiens, UniProt P01116, G12C)
Assay: KRas degradation in NCI-H2030 cells by Western blot, normalized to GAPDH (data of Table 14)
Format: cell-based
Parameters: host or cells: NCI-H2030
Settings: for Percent Degradation at Indicated Concentration (μM): H2030; for Dmax: NCI-H2030; for Percent Degradation at Indicated Concentration (μM): 0.1: 0.1 μM
How it was run: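 After overnight adherence and 24 h without FBS, compounds added at 0.3, 1 or 3 μM (0.1% DMSO) for 24 h (VHL-based) or 72 h (others). Western blot of RIPA lysates, KRas signal over GAPDH relative to DMSO; DC50 and DMax derived, or <25% scored visually.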

Row | Percent Degradation at Indicated Concentration (μM) (0.3 μM) | Percent Degradation at Indicated Concentration (μM) (1 μM) | Percent Degradation at Indicated Concentration (μM) (3 μM) | Dmax [%] | Percent Degradation at Indicated Concentration (μM): 0.3 (H2030 cells, 0.3 μM) | Percent Degradation at Indicated Concentration (μM): 1 (H2030 cells, 1 μM) | Percent Degradation at Indicated Concentration (μM): 3 (H2030 cells, 3 μM) | Dmax (H2030 cells) [%] | Percent Degradation at Indicated Concentration (μM): 0.1 (H2030 cells) | SMILES
1 | C (Percent Degradation: C ≤ 35) | C (Percent Degradation: C ≤ 35) | C (Percent Degradation: C ≤ 35) | ≤ 35 | – | – | – | – | – | Cc1ncsc1-c1ccc([C@H](C)NC(=O)[C@@H]2C[C@@H](O)CN2C(=O)[C@@H](NC(=O)COCCOCCOCCOCCN(C)C(=O)CCNc2nc(N3CCN(C(N)=O)CC3)c3cc(Cl)c(-c4cc(O)cc5ccccc45)c(F)c3n2)C(C)(C)C)cc1 [compound 184, 4-(6-chloro-8-fluoro-2-(((S)-20-((2S,4R)-4-hydroxy-2-(((S)-1-(4-(4-methylthiazol-5-yl)phenyl)ethyl)carbamoyl)pyrrolidine-1-carbonyl)-4,21,21-trimethyl-3,18-dioxo-7,10,13,16-tetraoxa-4,19-diazadocosyl)amino)-7-(3-hydroxynaphthalen-1-yl)quinazolin-4-yl)piperazine-1-carboxamide]
2 | – | – | – | – | C (C ≤ 35) | C (C ≤ 35) | C (C ≤ 35) | ≤ 35 | – | CCC(=O)N1CCN(c2nc(NCCC(=O)N(C)CCOCC(=O)N[C@H](C(=O)N3C[C@H](O)C[C@H]3C(=O)N[C@@H](C)c3ccc(-c4scnc4C)cc3)C(C)(C)C)nc3c(F)c(-c4cc(O)cc5ccccc45)c(Cl)cc23)CC1 [compound 186, (2S,4R)-1-((2S)-2-(2-(2-(3-((6-chloro-8-fluoro-7-(3-hydroxynaphthalen-1-yl)-4-(4-propionylpiperazin-1-yl)quinazolin-2-yl)amino)-N-methylpropanamido)ethoxy)acetamido)-3,3-dimethylbutanoyl)-4-hydroxy-N-((S)-1-(4-(4-methylthiazol-5-yl)phenyl)ethyl)pyrrolidine-2-carboxamide]
3 | – | – | – | – | C (C ≤ 35) | C (C ≤ 35) | C (C ≤ 35) | ≤ 35 | – | CCC(=O)N1CCN(c2nc(NCCC(=O)N(C)CCOCCOCC(=O)N[C@H](C(=O)N3C[C@H](O)C[C@H]3C(=O)N[C@@H](C)c3ccc(-c4scnc4C)cc3)C(C)(C)C)nc3c(F)c(-c4cc(O)cc5ccccc45)c(Cl)cc23)CC1 [compound 187, (2S,4R)-1-((2S)-2-(tert-butyl)-15-((6-chloro-8-fluoro-7-(3-hydroxynaphthalen-1-yl)-4-(4-propionylpiperazin-1-yl)quinazolin-2-yl)amino)-12-methyl-4,13-dioxo-6,9-dioxa-3,12-diazapentadecanoyl)-4-hydroxy-N-((S)-1-(4-(4-methylthiazol-5-yl)phenyl)ethyl)pyrrolidine-2-carboxamide]
4 | – | – | – | – | C (C ≤ 35) | C (C ≤ 35) | C (C ≤ 35) | ≤ 35 | – | CCC(=O)N1CCN(c2nc(NCCC(=O)N(C)CCOCCOCCOCC(=O)N[C@H](C(=O)N3C[C@H](O)C[C@H]3C(=O)N[C@@H](C)c3ccc(-c4scnc4C)cc3)C(C)(C)C)nc3c(F)c(-c4cc(O)cc5ccccc45)c(Cl)cc23)CC1 [compound 188, (2S,4R)-1-((2S)-2-(tert-butyl)-18-((6-chloro-8-fluoro-7-(3-hydroxynaphthalen-1-yl)-4-(4-propionylpiperazin-1-yl)quinazolin-2-yl)amino)-15-methyl-4,16-dioxo-6,9,12-trioxa-3,15-diazaoctadecanoyl)-4-hydroxy-N-((S)-1-(4-(4-methylthiazol-5-yl)phenyl)ethyl)pyrrolidine-2-carboxamide]
5 | – | – | – | – | C (C ≤ 35) | C (C ≤ 35) | C (C ≤ 35) | ≤ 35 | – | CCC(=O)N1CCN(c2nc(NCCC(=O)N(C)CCOCCOCCOCCOCC(=O)N[C@H](C(=O)N3C[C@H](O)C[C@H]3C(=O)N[C@@H](C)c3ccc(-c4scnc4C)cc3)C(C)(C)C)nc3c(F)c(-c4cc(O)cc5ccccc45)c(Cl)cc23)CC1 [compound 189, (2S,4R)-1-((2S)-2-(tert-butyl)-21-((6-chloro-8-fluoro-7-(3-hydroxynaphthalen-1-yl)-4-(4-propionylpiperazin-1-yl)quinazolin-2-yl)amino)-18-methyl-4,19-dioxo-6,9,12,15-tetraoxa-3,18-diazahenicosanoyl)-4-hydroxy-N-((S)-1-(4-(4-methylthiazol-5-yl)phenyl)ethyl)pyrrolidine-2-carboxamide]
6 | – | – | – | – | C (C ≤ 35) | C (C ≤ 35) | C (C ≤ 35) | ≤ 35 | – | CCC(=O)N1CCN(c2nc(NCCC(=O)N(C)CCOCCOCCOCCOCCOCC(=O)N[C@H](C(=O)N3C[C@H](O)C[C@H]3C(=O)N[C@@H](C)c3ccc(-c4scnc4C)cc3)C(C)(C)C)nc3c(F)c(-c4cc(O)cc5ccccc45)c(Cl)cc23)CC1 [compound 190, (2S,4R)-1-((2S)-2-(tert-butyl)-24-((6-chloro-8-fluoro-7-(3-hydroxynaphthalen-1-yl)-4-(4-propionylpiperazin-1-yl)quinazolin-2-yl)amino)-21-methyl-4,22-dioxo-6,9,12,15,18-pentaoxa-3,21-diazatetracosanoyl)-4-hydroxy-N-((S)-1-(4-(4-methylthiazol-5-yl)phenyl)ethyl)pyrrolidine-2-carboxamide]
7 | – | – | – | – | C (C ≤ 35) | C (C ≤ 35) | – | ≤ 35 | C (C ≤ 35) | C=CC(=O)N1CCN(c2nc(NCCC(=O)N(C)CCOCC(=O)N[C@H](C(=O)N3C[C@H](O)C[C@H]3C(=O)N[C@@H](C)c3ccc(-c4scnc4C)cc3)C(C)(C)C)nc3c(F)c(-c4cc(O)cc5ccccc45)c(Cl)cc23)CC1 [compound 191, (2S,4R)-1-((2S)-2-(2-(2-(3-((4-(4-acryloylpiperazin-1-yl)-6-chloro-8-fluoro-7-(3-hydroxynaphthalen-1-yl)quinazolin-2-yl)amino)-N-methylpropanamido)ethoxy)acetamido)-3,3-dimethylbutanoyl)-4-hydroxy-N-((S)-1-(4-(4-methylthiazol-5-yl)phenyl)ethyl)pyrrolidine-2-carboxamide]
8 | – | – | – | – | C (C ≤ 35) | C (C ≤ 35) | – | ≤ 35 | C (C ≤ 35) | C=CC(=O)N1CCN(c2nc(NCCC(=O)N(C)CCOCCOCC(=O)N[C@H](C(=O)N3C[C@H](O)C[C@H]3C(=O)N[C@@H](C)c3ccc(-c4scnc4C)cc3)C(C)(C)C)nc3c(F)c(-c4cc(O)cc5ccccc45)c(Cl)cc23)CC1 [compound 192, (2S,4R)-1-((2S)-15-((4-(4-acryloylpiperazin-1-yl)-6-chloro-8-fluoro-7-(3-hydroxynaphthalen-1-yl)quinazolin-2-yl)amino)-2-(tert-butyl)-12-methyl-4,13-dioxo-6,9-dioxa-3,12-diazapentadecanoyl)-4-hydroxy-N-((S)-1-(4-(4-methylthiazol-5-yl)phenyl)ethyl)pyrrolidine-2-carboxamide]
